# Results published in ChEMBL document CHEMBL1201862, “PubChem BioAssay data set” (2004).
#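 How tested: cells in 96-well plates exposed to compound for 48 hours at five concentrations. GI50 is the concentration that inhibits growth by half.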 Activity calls are given as the source filed them. No stated cut-off is given here; in the data, active = GI50 up to about 1.1 µM and inactive = higher.
# Experiments:
# Test in all cases: NCI tumour cell line growth inhibition, 48 h
# [1] = test system: HCT-116
# [2] = test system: M19-MEL
# [3] = test system: SNB-75
# [4] = test system: HOP-18
# [5] = test system: KM12
# [6] = test system: TK-10
# [7] = test system: SF-268
# [8] = test system: ACHN
# [9] = test system: SF-295
# [10] = test system: CAKI-1
# [11] = test system: K562
# [12] = test system: MOLT-4
# [13] = test system: HCT-15
# [14] = test system: RPMI-8226
# [15] = test system: UACC-62
# [16] = test system: SK-OV-3
# [17] = test system: U-251
# [18] = test system: DLD-1
# [19] = test system: OVCAR-8
# [20] = test system: UO-31
# [21] = test system: A498
# [22] = test system: SN12C
# [23] = test system: HOP-62
# [24] = test system: SW-620
# [25] = test system: 786-0
# [26] = test system: OVCAR-4
# [27] = test system: HT-29
# [28] = test system: NCI-H460
# [29] = test system: SK-MEL-2
# [30] = test system: DMS-273
# [31] = test system: RXF 393
# [32] = test system: HCC 2998
# [33] = test system: HL-60
# [34] = test system: A549
# [35] = test system: LOX IMVI
# [36] = test system: SR
# [37] = test system: HOP-92
# [38] = test system: CCRF-CEM
# [39] = test system: DMS-114
# [40] = test system: IGROV-1
# [41] = test system: M14
# [42] = test system: Malme-3M
# [43] = test system: SK-MEL-28
# [44] = test system: NCI-H522
# [45] = test system: NCI-H23
# [46] = test system: SF-539
# [47] = test system: COLO 205
# [48] = test system: SK-MEL-5
# [49] = test system: OVCAR-5
# [50] = test system: SNB-19
# [51] = test system: OVCAR-3
# [52] = test system: LXFL 529
# [53] = test system: UACC-257
# [54] = test system: KM-20L2
# [55] = test system: NCI-H226
# [56] = test system: EKVX
# [57] = test system: XF498
# [58] = test system: SNB-78
smiles,measurement,setting,value
CC([C@H]1CCC2C3CCC4CC5(CC[C@]4(C)C3CC[C@@]21C)c1ccccc1C(=O)N5C)N(C)C (stereo not given in full),GI50,[1],13.3 µM (inactive)
same,GI50,[2],17 µM (inactive)
same,GI50,[3],3.45 µM (inactive)
same,GI50,[4],> 100 µM (inactive)
same,GI50,[5],74.8 µM (inactive)
same,GI50,[6],26.1 µM (inactive)
same,GI50,[7],> 100 µM (inactive)
same,GI50,[8],44.9 µM (inactive)
same,GI50,[9],18.7 µM (inactive)
same,GI50,[10],> 100 µM (inactive)
same,GI50,[11],15.7 µM (inactive)
same,GI50,[12],19.2 µM (inactive)
same,GI50,[13],27.7 µM
same,GI50,[14],20.7 µM (inactive)
same,GI50,[15],24.5 µM (inactive)
same,GI50,[16],> 100 µM (inactive)
same,GI50,[17],40.4 µM (inactive)
same,GI50,[18],36.5 µM (inactive)
same,GI50,[19],39.8 µM (inactive)
same,GI50,[20],13 µM (inactive)
same,GI50,[21],23.8 µM (inactive)
same,GI50,[22],31.6 µM (inactive)
same,GI50,[23],31.3 µM (inactive)
same,GI50,[24],40.6 µM (inactive)
same,GI50,[25],13.9 µM (inactive)
same,GI50,[26],68.1 µM (inactive)
same,GI50,[27],6.18 µM (inactive)
same,GI50,[28],21.4 µM (inactive)
same,GI50,[29],19.7 µM (inactive)
same,GI50,[30],12.9 µM (inactive)
same,GI50,[31],33 µM (inactive)
same,GI50,[32],> 100 µM (inactive)
same,GI50,[33],17.5 µM (inactive)
same,GI50,[34],78.5 µM (inactive)
same,GI50,[35],1.65 µM (inactive)
same,GI50,[36],18.1 µM (inactive)
same,GI50,[37],50.5 µM (inactive)
same,GI50,[38],44.4 µM (inactive)
same,GI50,[39],32.4 µM (inactive)
same,GI50,[40],40.6 µM (inactive)
same,GI50,[41],13.9 µM (inactive)
same,GI50,[42],21.2 µM (inactive)
same,GI50,[43],17.6 µM (inactive)
same,GI50,[44],46.9 µM (inactive)
same,GI50,[45],> 100 µM (inactive)
same,GI50,[46],17.9 µM (inactive)
same,GI50,[47],33 µM (inactive)
same,GI50,[48],17.9 µM (inactive)
same,GI50,[49],29 µM (inactive)
same,GI50,[50],42.3 µM (inactive)
same,GI50,[51],> 100 µM (inactive)
same,GI50,[52],32.2 µM (inactive)
O=C(Nc1ccc(F)cc1)C(=O)C(C(=O)c1ccccc1F)C1OC(=O)c2ccccc21 (stereo not given),GI50,[1],45.8 µM (inactive)
same,GI50,[53],> 100 µM (inactive)
same,GI50,[3],43.7 µM (inactive)
same,GI50,[5],79.4 µM (inactive)
same,GI50,[6],> 100 µM (inactive)
same,GI50,[54],86.3 µM (inactive)
same,GI50,[7],50 µM (inactive)
same,GI50,[8],> 100 µM (inactive)
same,GI50,[9],68.5 µM (inactive)
same,GI50,[10],> 100 µM (inactive)
same,GI50,[11],34.7 µM (inactive)
same,GI50,[12],14.9 µM (inactive)
same,GI50,[13],23.6 µM
same,GI50,[14],23.4 µM (inactive)
same,GI50,[15],39.9 µM (inactive)
same,GI50,[16],66.5 µM (inactive)
same,GI50,[17],24 µM (inactive)
same,GI50,[18],76.4 µM (inactive)
same,GI50,[19],43 µM (inactive)
same,GI50,[20],52.6 µM (inactive)
same,GI50,[21],> 100 µM (inactive)
same,GI50,[22],51.2 µM (inactive)
same,GI50,[55],21.4 µM (inactive)
same,GI50,[23],> 100 µM (inactive)
same,GI50,[24],58.6 µM (inactive)
same,GI50,[26],55.3 µM (inactive)
same,GI50,[27],52.6 µM (inactive)
same,GI50,[28],47 µM (inactive)
same,GI50,[29],54.1 µM (inactive)
same,GI50,[56],68.4 µM (inactive)
same,GI50,[30],43.3 µM (inactive)
same,GI50,[31],> 100 µM (inactive)
same,GI50,[32],38.5 µM (inactive)
same,GI50,[33],29.8 µM (inactive)
same,GI50,[34],> 100 µM (inactive)
same,GI50,[35],35.6 µM (inactive)
same,GI50,[36],19.8 µM (inactive)
same,GI50,[37],> 100 µM (inactive)
same,GI50,[38],17.6 µM (inactive)
same,GI50,[39],45.5 µM (inactive)
same,GI50,[40],> 100 µM (inactive)
same,GI50,[41],> 100 µM (inactive)
same,GI50,[57],50.8 µM (inactive)
same,GI50,[43],87.3 µM (inactive)
same,GI50,[44],15 µM (inactive)
same,GI50,[45],> 100 µM (inactive)
same,GI50,[46],31 µM (inactive)
same,GI50,[47],48.1 µM (inactive)
same,GI50,[48],> 100 µM (inactive)
same,GI50,[49],> 100 µM (inactive)
same,GI50,[50],39.4 µM (inactive)
same,GI50,[58],44.6 µM (inactive)
same,GI50,[52],34.8 µM (inactive)
